According to ChEMBL document CHEMBL1201862, “PubChem BioAssay data set” (2004):
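Briefly, cells in 96-well plates were exposed to five compound concentrations for 48 h, and endpoints were estimated by linear interpolation. GI50 = concentration required for 50% inhibition of growth.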 Activity calls are given as the source filed them. Rule as the data show it: active = GI50 up to about 1.1 µM and inactive = higher.

Experiments:
Assay in all cases: growth of human tumour cells (NCI), 48 h
DMS-114 = system: DMS-114
Malme-3M = system: Malme-3M
HOP-18 = system: HOP-18
EKVX = system: EKVX
M19-MEL = system: M19-MEL
SF-268 = system: SF-268
ACHN = system: ACHN
SK-MEL-5 = system: SK-MEL-5
OVCAR-8 = system: OVCAR-8
SW-620 = system: SW-620
U-251 = system: U-251
LXFL 529 = system: LXFL 529
SK-MEL-2 = system: SK-MEL-2
DLD-1 = system: DLD-1
OVCAR-3 = system: OVCAR-3
IGROV-1 = system: IGROV-1
CCRF-CEM = system: CCRF-CEM
SNB-19 = system: SNB-19
DU-145 = system: DU-145
MCF7 = system: MCF7

Measured: GI50

COC(=O)C(=O)C1(CCC(C)=O)c2ccccc2-c2ccccc21
inactive: DMS-114 65.5 µM | Malme-3M 49.7 µM | HOP-18 71.6 µM | EKVX > 100 µM | M19-MEL > 100 µM | SF-268 > 100 µM | ACHN > 100 µM | SK-MEL-5 35.7 µM | OVCAR-8 99.8 µM | SW-620 > 100 µM | U-251 68.5 µM | LXFL 529 47.1 µM | SK-MEL-2 83.4 µM | DLD-1 66.2 µM | OVCAR-3 44.6 µM | IGROV-1 > 100 µM | CCRF-CEM 63.2 µM | SNB-19 > 100 µM

COC(=O)C(CC=O)C(=O)C(=O)Nc1cccc(C(F)(F)F)c1 (stereo not given)
inactive: DMS-114 > 100 µM | Malme-3M > 100 µM | HOP-18 > 100 µM | EKVX > 100 µM | M19-MEL > 100 µM | SF-268 > 100 µM | ACHN > 100 µM | SK-MEL-5 > 100 µM | OVCAR-8 > 100 µM | SW-620 > 100 µM | U-251 > 100 µM | LXFL 529 > 100 µM | SK-MEL-2 > 100 µM | DLD-1 > 100 µM | OVCAR-3 > 100 µM | IGROV-1 > 100 µM | CCRF-CEM > 100 µM | SNB-19 > 100 µM

COc1cccc(NC(=O)CC(=O)N2N=C(N(CCC#N)c3ccc(Cl)cc3)CC2c2ccccc2)c1 (stereo not given)
inactive: DMS-114 > 100 µM | Malme-3M > 100 µM | HOP-18 > 100 µM | EKVX > 100 µM | M19-MEL > 100 µM | SF-268 > 100 µM | ACHN > 100 µM | SK-MEL-5 > 100 µM | OVCAR-8 > 100 µM | SW-620 > 100 µM | U-251 > 100 µM | LXFL 529 > 100 µM | SK-MEL-2 > 100 µM | DLD-1 > 100 µM | OVCAR-3 > 100 µM | IGROV-1 > 100 µM | CCRF-CEM > 100 µM | SNB-19 > 100 µM

CC1CN1c1c(C(=O)/C=C/c2ccccc2)c(-c2ccccc2)nn(C)c1=O (stereo not given)
inactive: DMS-114 23 µM | Malme-3M 19.7 µM | HOP-18 26.2 µM | EKVX 17.3 µM | M19-MEL 17.3 µM | SF-268 27.9 µM | ACHN 17.4 µM | SK-MEL-5 15.9 µM | OVCAR-8 19.1 µM | SW-620 18.2 µM | U-251 16.9 µM | LXFL 529 15.3 µM | SK-MEL-2 16.3 µM | DLD-1 15.2 µM | OVCAR-3 18.5 µM | IGROV-1 23.7 µM | CCRF-CEM 13.4 µM | SNB-19 24.4 µM

N#CC(/C(=N\NC(N)=S)C(=O)NC1C2CC3CC(C2)CC1C3)c1ccc(Cl)cc1 (stereo not given)
inactive: DMS-114 > 100 µM | Malme-3M > 100 µM | HOP-18 > 100 µM | EKVX > 100 µM | M19-MEL > 100 µM | SF-268 > 100 µM | ACHN > 100 µM | SK-MEL-5 > 100 µM | OVCAR-8 > 100 µM | SW-620 > 100 µM | U-251 > 100 µM | LXFL 529 > 100 µM | SK-MEL-2 > 100 µM | DLD-1 > 100 µM | OVCAR-3 > 100 µM | IGROV-1 > 100 µM | CCRF-CEM > 100 µM | SNB-19 > 100 µM

O=C1NC(Cc2ccccc2)C(=O)N2CCCC12 (stereo not given)
inactive: DMS-114 > 100 µM | Malme-3M > 100 µM | HOP-18 > 100 µM | EKVX > 100 µM | M19-MEL > 100 µM | SF-268 > 100 µM | ACHN > 100 µM | SK-MEL-5 > 100 µM | OVCAR-8 > 100 µM | SW-620 > 100 µM | U-251 > 100 µM | LXFL 529 > 100 µM | SK-MEL-2 > 100 µM | DLD-1 > 100 µM | OVCAR-3 > 100 µM | IGROV-1 > 100 µM | CCRF-CEM > 100 µM | SNB-19 > 100 µM

CCCNCc1nc2ccc(Br)cc2c(=O)n1CCC
inactive: DMS-114 10.8 µM | Malme-3M 13.5 µM | HOP-18 18.1 µM | EKVX 19.1 µM | M19-MEL 13.2 µM | SF-268 13.6 µM | ACHN 16.1 µM | SK-MEL-5 7.55 µM | OVCAR-8 13.4 µM | SW-620 13.7 µM | U-251 13.3 µM | LXFL 529 12.6 µM | SK-MEL-2 12.4 µM | DLD-1 8.09 µM | OVCAR-3 18.4 µM | IGROV-1 15.6 µM | CCRF-CEM 3.27 µM | SNB-19 16.8 µM

CCC(=O)N1C(=O)OCC1C(C)C (stereo not given)
inactive: DMS-114 > 100 µM | Malme-3M > 100 µM | HOP-18 15.8 µM | EKVX > 100 µM | M19-MEL > 100 µM | SF-268 > 100 µM | ACHN > 100 µM | SK-MEL-5 > 100 µM | OVCAR-8 > 100 µM | SW-620 > 100 µM | U-251 > 100 µM | LXFL 529 > 100 µM | SK-MEL-2 > 100 µM | DLD-1 > 100 µM | OVCAR-3 > 100 µM | IGROV-1 > 100 µM | CCRF-CEM > 100 µM | SNB-19 > 100 µM

Clc1ccc(/C=C/c2csnn2)cc1
inactive: DMS-114 > 100 µM | Malme-3M > 100 µM | HOP-18 > 100 µM | EKVX > 100 µM | M19-MEL > 100 µM | SF-268 > 100 µM | ACHN > 100 µM | SK-MEL-5 > 100 µM | OVCAR-8 > 100 µM | SW-620 > 100 µM | U-251 > 100 µM | LXFL 529 > 100 µM | SK-MEL-2 > 100 µM | DLD-1 > 100 µM | OVCAR-3 > 100 µM | IGROV-1 > 100 µM | CCRF-CEM > 100 µM | SNB-19 > 100 µM

CC(=O)/C(C)=N/NC(=O)c1ccccc1O
inactive: DMS-114 > 10 µM | Malme-3M > 10 µM | DU-145 > 100 µM | HOP-18 > 10 µM | EKVX > 10 µM | M19-MEL > 10 µM | SF-268 > 10 µM | ACHN > 10 µM | SK-MEL-5 95.1 µM | OVCAR-8 > 10 µM | MCF7 > 100 µM | SW-620 > 10 µM | U-251 > 10 µM | LXFL 529 > 10 µM | SK-MEL-2 > 10 µM | DLD-1 > 10 µM | OVCAR-3 69.5 µM | IGROV-1 75 µM | CCRF-CEM 23 µM | SNB-19 > 10 µM

CCCCCCCCCCCCCC(=O)CSCCNC(=O)CCNC(=O)[C@@H](O)C(C)(C)COP(=O)(O)OP(=O)(O)OCC1OC(n2cnc3c(N)ncnc32)C(O)C1OP(=O)(O)O (stereo not given in full)
inactive: DMS-114 15.6 µM | Malme-3M 17.9 µM | HOP-18 17.5 µM | EKVX 17.9 µM | M19-MEL 18.9 µM | SF-268 20 µM | ACHN 18.2 µM | SK-MEL-5 18.9 µM | OVCAR-8 27.4 µM | SW-620 19.4 µM | U-251 18 µM | LXFL 529 17.5 µM | SK-MEL-2 17.2 µM | DLD-1 19 µM | OVCAR-3 38 µM | IGROV-1 13.6 µM | CCRF-CEM 24.4 µM | SNB-19 18.6 µM
